Where two headings read alike, the source gives them in different places.

The values that follow come from US9309276B2, “Synthetic lipid A derivative” (University of Georgia Research Foundation, Inc., priority 2007, dated 2016).

The subject of data set [1] is MM6 cells. As to the kind of experiment: Cell viability of MM6 cells by trypan blue exclusion. It is filed as cell-based, human. The note with it: 5.5 h treatment.
Data set [2] addresses T1, human TLR2 (Homo sapiens, UniProt O60603).
T1 construct: host or cells: HEK 293T
The data set can be described thus: NF-κB activation in HEK 293T cells stably transfected with human TLR2. The note with it: 103/104 at 0.1, 1 and 10 μg mL−1; Pam3CysSK4 1 μg mL−1; 4 h. It is filed as cell-based. The protocol: (§1) Induction of NF-κB activation was determined in triplicate cultures of HEK 293T cells stably transfected with human or mouse (a) TLR4/MD2/CD14 and (b) TLR2 and transiently transfected with pELAM-Luc and pRL-TK plasmids. Forty-four h post-transfection, cells were treated with (B) E. coli LPS (10 ng mL^−1), (C) Pam3CysSK4 (1 μg mL^−1), (D, E and F) 103 (0.1, 1 and 10 μg mL^−1, respectively), (G, H and I) 104 (0.1, 1 and 10 μg mL^−1, respectively) or (A) were left untreated (control). Forty-eight h post-transfection, NF-κB activation was determined by firefly luciferase activity relative to Renilla luciferase activity. n.a. indicates not analyzed.
(§2) To examine the ability of the synthetic compounds to induce activation of NF-κB, HEK 293T cells were employed that were stably transfected with various immune receptors and transiently transfected with a plasmid containing the reporter gene pELAM-Luc (NF-κB-dependent firefly luciferase reporter vector) and a plasmid containing the control gene pRL-TK (Renilla luciferase control reporter vector) (FIG. 11). […] Although compound 104 is a weak activator of mouse TLR4, it could not induce the secretion of cytokines.
(§3) The day before transfection, HEK 293T wild type cells and HEK 293T cells stably transfected with human and murine TLR4/MD2/CD14 and human and murine TLR2 were plated in 96-well tissue culture plates (16,000 cells/well). The next day, cells were transiently transfected using PolyFect Transfection Reagent (Qiagen) with expression plasmids pELAM-Luc (NF-κB-dependent firefly luciferase reporter plasmid, 50 ng/well) (Chow et al., J. Biol. Chem., 1999, 274, 10689-10692) and pRL-TK (Renilla luciferase control reporter vector, 1 ng/well; Promega) as an internal control to normalize experimental variations. […] The luciferase activity was measured using the Dual-Luciferase Reporter Assay System (Promega) according to the manufacturer's instructions and a combination luminometer/fluorometer microplate reader (BMG Labtech). […]

In data set [3] the target is T2, mouse TLR2 (Mus musculus, UniProt Q9QUN7).
T2 construct: host or cells: HEK 293T
As to the kind of experiment: NF-κB activation in HEK 293T cells stably transfected with mouse TLR2. The note with it: 103/104 at 0.1, 1 and 10 μg mL−1; Pam3CysSK4 1 μg mL−1; 4 h. The format is cell-based. On the procedure: as §1, §2, §3

The subject of data set [4] is MM6 cells. As to the kind of experiment: Antagonism of E. coli LPS-induced TNF-α production in human monocytic MM6 cells. The format is cell-based. The note with it: 5.5 h, read-out: IC50 (concentration producing 50% inhibition) of TNF production induced by E. coli LPS. On the procedure: TNF-α concentrations were measured after preincubation of MM6 cells with increasing concentrations of 103 or 104 as indicated for 1 h at 37° C., followed by 5.5 h of incubation with E. coli LPS (1 ng mL^−1). Results are expressed as percentage of cytokine concentration of control cells, which are incubated only with E. coli LPS.
Compounds that lack proinflammatory properties may still interact with relevant receptors (TLR4/MD2/CD14), and thereby inhibit TNF-α production induced by E. coli LPS. […]
(§4) On the day of the exposure assay differentiated MM6 cells were harvested by centrifugation and suspended (10^6 cells mL^−1) in tissue culture tubes and RAW 264.7 γNO(−) cells were plated as 2×10^5 cells/well in 96-well tissue culture plates (Nunc). […] Concentrations of human TNF-α protein in culture supernatants were determined by a solid phase sandwich ELISA. […] After the reaction was stopped by adding peroxidase stop solution (Kirkegaard & Perry Laboratories), the absorbance was measured at 405 nm using a microplate reader (BMG Labtech). Cytokine DuoSet ELISA Development Kits (R&D Systems) were used for the cytokine quantification of mouse TNF-α, mouse IL-6, mouse IP-10 and mouse IL-1β according to the manufacturer's instructions. The absorbance was measured at 450 nm with wavelength correction set to 540 nm. Concentrations of mouse IFN-β in culture supernatants were determined as follows. […]

Data set [5] has as its system RAW cells. As to the kind of experiment: Antagonism of E. coli LPS-induced TNF-α production in mouse macrophages (RAW cells). The format is cell-based. The note with it: mouse cell line, E. coli LPS (10 ng/mL), 5.5 h. On the procedure: Compounds that lack proinflammatory properties may still interact with relevant receptors (TLR4/MD2/CD14), and thereby inhibit TNF-α production induced by E. coli LPS. Thus, the human monocytic cells and mouse macrophages (MM6 and RAW cells) were exposed to a combination of E. coli LPS (10 ng/mL) and a wide range of concentrations of lipid As 103 and 104 and, after an incubation time of 5.5 h, the supernatant was examined for human or mouse TNF-a.
as §4

T2 sequence (Q9QUN7 25-784): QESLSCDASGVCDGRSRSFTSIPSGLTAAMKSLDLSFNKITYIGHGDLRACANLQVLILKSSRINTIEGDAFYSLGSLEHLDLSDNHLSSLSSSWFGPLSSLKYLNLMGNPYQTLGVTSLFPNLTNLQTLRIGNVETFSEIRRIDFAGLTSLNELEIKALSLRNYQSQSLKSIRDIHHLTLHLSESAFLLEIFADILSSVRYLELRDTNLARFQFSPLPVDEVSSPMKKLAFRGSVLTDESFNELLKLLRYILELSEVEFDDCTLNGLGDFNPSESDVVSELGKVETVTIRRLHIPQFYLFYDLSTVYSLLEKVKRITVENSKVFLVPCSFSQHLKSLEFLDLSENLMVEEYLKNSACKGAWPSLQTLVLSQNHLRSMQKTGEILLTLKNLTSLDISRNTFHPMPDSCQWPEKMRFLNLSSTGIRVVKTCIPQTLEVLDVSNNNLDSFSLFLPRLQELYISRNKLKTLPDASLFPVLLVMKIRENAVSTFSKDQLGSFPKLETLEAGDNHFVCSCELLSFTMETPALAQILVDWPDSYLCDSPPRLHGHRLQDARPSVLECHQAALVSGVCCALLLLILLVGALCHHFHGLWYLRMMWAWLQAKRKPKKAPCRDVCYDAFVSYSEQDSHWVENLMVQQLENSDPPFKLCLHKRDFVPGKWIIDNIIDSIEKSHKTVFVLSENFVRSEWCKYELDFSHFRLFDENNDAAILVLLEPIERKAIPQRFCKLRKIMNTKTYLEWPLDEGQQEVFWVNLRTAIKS
T1 sequence (O60603 21-784): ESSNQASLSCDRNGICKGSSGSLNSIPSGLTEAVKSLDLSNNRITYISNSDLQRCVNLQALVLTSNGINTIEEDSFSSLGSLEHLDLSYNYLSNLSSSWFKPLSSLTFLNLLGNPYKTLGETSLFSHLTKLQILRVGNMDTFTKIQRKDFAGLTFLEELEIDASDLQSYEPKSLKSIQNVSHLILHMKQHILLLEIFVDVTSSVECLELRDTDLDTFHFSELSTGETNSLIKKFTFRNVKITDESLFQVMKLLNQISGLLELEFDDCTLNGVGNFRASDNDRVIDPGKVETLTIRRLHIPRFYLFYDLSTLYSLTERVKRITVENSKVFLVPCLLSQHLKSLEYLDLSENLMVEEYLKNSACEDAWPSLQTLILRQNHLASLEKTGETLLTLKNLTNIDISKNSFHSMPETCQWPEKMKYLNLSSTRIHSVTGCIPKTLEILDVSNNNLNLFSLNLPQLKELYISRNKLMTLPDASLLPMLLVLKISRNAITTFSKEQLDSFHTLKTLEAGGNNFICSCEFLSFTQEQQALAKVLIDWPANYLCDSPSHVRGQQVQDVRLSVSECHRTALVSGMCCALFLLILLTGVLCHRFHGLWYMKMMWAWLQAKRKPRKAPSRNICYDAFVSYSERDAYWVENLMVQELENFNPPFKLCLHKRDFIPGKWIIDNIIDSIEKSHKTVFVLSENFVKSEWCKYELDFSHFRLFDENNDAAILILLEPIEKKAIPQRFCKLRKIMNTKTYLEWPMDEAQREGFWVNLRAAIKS

On to `CCCCCCCCCCCCCCCC(=O)O[C@H](CCCCCCCCCCCC(C)C)CC(=O)N[C@H]1[C@H](OC[C@H]2O[C@H](OP(=O)(O)O)[C@H](NC(=O)C[C@H](O)CCCCCCCCCCCC(C)C)[C@@H](OC(=O)C[C@H](O)CCCCCCCCCCCCC)[C@@H]2O)O[C@H](CO)[C@@H](O)[C@@H]1O` [Compound 103, 6-O-{2-Deoxy-2-[(R)-3-hexadecanoyloxy-15-methyl-hexadecanoylamino]-β-D-glucopyranosyl}-3-O—[(R)-3-hydroxy-hexadecanoyl]-2-deoxy-2-[(R)-3-hydroxy-15-methyl-hexadecanoylamino]-α-D-glucopyranose 1-phosphate], for which the “cell viability, cellular exclusion of trypan blue” value in data set [1] is “did not affect cell viability”. In data set [2], the “NF-κB activation, human TLR2” value is “No activation of NF-κB”. Moreover, the “NF-κB activation, mouse TLR2” value in data set [3] is “No activation of NF-κB”. Further, in data set [4] (human MM6 cells, E. coli LPS (10 ng/mL)), the IC50 was determined as 0.16 µM. Besides, the “inhibition of TNF-α production induced by E. coli LPS” value in data set [5] is “marginal inhibition”.
`CCCCCCCCCCCCCCCC(=O)O[C@H](CCCCCCCCCCCC(C)C)CC(=O)N[C@H]1[C@H](OC[C@H]2O[C@H](OP(=O)(O)O)[C@H](NC(=O)C[C@H](O)CCCCCCCCCCCC(C)C)[C@@H](O)[C@@H]2O)O[C@H](CO)[C@@H](O)[C@@H]1ONC(=O)C[C@H](O)CCCCCCCCCC(C)C` [Compound 104, 6-O-{2-Deoxy-2-[(R)-3-hexadecanoyloxy-15-methyl-hexadecanoylamino]-3-O—[(R)-3-hydroxy-13-methyl-tetradecanoylamino]-β-D-glucopyranosyl}-2-deoxy-2-[(R)-3-hydroxy-15-methyl-hexadecanoylamino]-α-D-glucopyranose 1-phosphate]: the “cell viability, cellular exclusion of trypan blue” value in data set [1] is recorded as “did not affect cell viability”. Moreover, the “NF-κB activation, human TLR2” value in data set [2] is listed as “No activation of NF-κB”. In data set [3], the “NF-κB activation, mouse TLR2” value is on record as “No activation of NF-κB”. The IC50 in data set [4] (Homo sapiens) stood at 3.2 µM. Further, the “inhibition of TNF-α production induced by E. coli LPS” value in data set [5] was “marginal inhibition”.
